Experiments:
Pseudomonas aeruginosa [1] = assay: Antimicrobial activity against Pseudomonas aeruginosa 27853 assessed as absence bacterial growth measured after 18 to 24 hrs incubation by NCCLS method; assay type: functional; settings: time 18-24 hrs
Bacillus cereus [2] = assay: Antimicrobial activity against Bacillus cereus 1.932 assessed as absence bacterial growth measured after 18 to 24 hrs incubation by NCCLS method; assay type: functional; settings: time 18-24 hrs
Salmonella typhimurium [3] = assay: Antimicrobial activity against Salmonella typhimurium C7731 assessed as absence bacterial growth measured after 18 to 24 hrs incubation by NCCLS method; assay type: functional, Salmonella enterica subsp. enterica serovar Typhimurium; settings: Salmonella enterica, time 18-24 hrs
Escherichia coli [4] = assay: Antimicrobial activity against Escherichia coli 25922 assessed as absence bacterial growth measured after 18 to 24 hrs incubation in presence of 50% serum by NCCLS method; assay type: functional; settings: time 18-24 hrs
Acinetobacter baumannii [5] = assay: Antimicrobial activity against Acinetobacter baumannii 1.6769 assessed as bacterial killing measured after 16 hrs incubation; assay type: functional
Escherichia coli [6] = assay: Antimicrobial activity against Escherichia coli 25922 assessed as absence bacterial growth measured after 18 to 24 hrs incubation in presence of 12.5% serum by NCCLS method; assay type: functional; settings: time 18-24 hrs
Escherichia coli [7] = assay: Antimicrobial activity against Escherichia coli 25922 assessed as absence bacterial growth measured after 18 to 24 hrs incubation in presence of MgCl2 by NCCLS method; assay type: functional; settings: time 18-24 hrs
Salmonella typhimurium [8] = assay: Antimicrobial activity against Salmonella typhimurium 14028 assessed as bacterial killing measured after 16 hrs incubation; assay type: functional, Salmonella enterica subsp. enterica serovar Typhimurium; settings: Salmonella enterica
Escherichia coli [9] = assay: Antimicrobial activity against Escherichia coli K88 assessed as absence bacterial growth measured after 18 to 24 hrs incubation by NCCLS method; assay type: functional; settings: time 18-24 hrs
Escherichia coli [10] = assay: Antimicrobial activity against Escherichia coli 25922 assessed as absence bacterial growth measured after 18 to 24 hrs incubation in presence of NH4Cl by NCCLS method; assay type: functional; settings: time 18-24 hrs
Enterococcus faecalis [11] = assay: Antimicrobial activity against Enterococcus faecalis 29212 assessed as bacterial killing measured after 16 hrs incubation; assay type: functional
[12] = system: Staphylococcus epidermidis; assay: Antimicrobial activity against Staphylococcus epidermidis 12228 assessed as bacterial killing measured after 16 hrs incubation; assay type: functional
Acinetobacter baumannii [13] = assay: Antimicrobial activity against Acinetobacter baumannii 1.6769 assessed as absence bacterial growth measured after 18 to 24 hrs incubation by NCCLS method; assay type: functional; settings: time 18-24 hrs
Staphylococcus aureus [14] = assay: Antimicrobial activity against Methicillin-resistant Staphylococcus aureus 43300 assessed as absence bacterial growth measured after 18 to 24 hrs incubation by NCCLS method; assay type: functional; settings: time 18-24 hrs
Listeria monocytogenes [15] = assay: Antimicrobial activity against Listeria monocytogenes 1.10753 assessed as absence bacterial growth measured after 18 to 24 hrs incubation by NCCLS method; assay type: functional; settings: time 18-24 hrs
Erythrocyte = assay: Hemolytic activity in human RBC at effective concentration measured after 1 hr by microplate reader analysis; assay type: toxicity, cell-based
[16] = Antimicrobial activity against Salmonella pullorum C7913 assessed as bacterial killing measured after 16 hrs incubation; assay type: functional, Salmonella enterica subsp. enterica serovar Pullorum; settings: Salmonella enterica
Enterococcus faecalis [17] = assay: Antimicrobial activity against Enterococcus faecalis 29212 assessed as absence bacterial growth measured after 18 to 24 hrs incubation by NCCLS method; assay type: functional; settings: time 18-24 hrs
Staphylococcus aureus [18] = assay: Antimicrobial activity against Methicillin-resistant Staphylococcus aureus 43300 assessed as bacterial killing measured after 16 hrs incubation; assay type: functional
Escherichia coli [19] = assay: Antimicrobial activity against Escherichia coli 25922 assessed as bacterial killing measured after 16 hrs incubation; assay type: functional
Escherichia coli [20] = assay: Antimicrobial activity against Escherichia coli 25922 assessed as absence bacterial growth measured after 18 to 24 hrs incubation in presence of FeCl3 by NCCLS method; assay type: functional; settings: time 18-24 hrs
Escherichia coli [21] = assay: Antimicrobial activity against Escherichia coli 25922 assessed as absence bacterial growth measured after 18 to 24 hrs incubation by NCCLS method; assay type: functional; settings: time 18-24 hrs
Staphylococcus aureus [22] = assay: Antimicrobial activity against Staphylococcus aureus 29213 assessed as absence bacterial growth measured after 18 to 24 hrs incubation by NCCLS method; assay type: functional; settings: time 18-24 hrs
Salmonella typhimurium [23] = assay: Antimicrobial activity against Salmonella typhimurium C7731 assessed as bacterial killing measured after 16 hrs incubation; assay type: functional, Salmonella enterica subsp. enterica serovar Typhimurium; settings: Salmonella enterica
[24] = Cytotoxicity against mouse RAW264.7 cells assessed as cell survival rate measured after 8 hrs by MTT assay; assay type: toxicity, cell-based
Listeria monocytogenes [25] = assay: Antimicrobial activity against Listeria monocytogenes 1.10753 assessed as bacterial killing measured after 16 hrs incubation; assay type: functional
Staphylococcus aureus [26] = assay: Antimicrobial activity against Staphylococcus aureus 25923 assessed as bacterial killing measured after 16 hrs incubation; assay type: functional
Escherichia coli [27] = assay: Antimicrobial activity against Escherichia coli K88 assessed as bacterial killing measured after 16 hrs incubation; assay type: functional
Bacillus cereus [28] = assay: Antimicrobial activity against Bacillus cereus 1.932 assessed as bacterial killing measured after 16 hrs incubation; assay type: functional
[29] = Cytotoxicity against porcine IPEC-J2 cells assessed as cell survival rate measured after 8 hrs by MTT assay; assay type: toxicity, cell-based, Sus scrofa; settings: pig
Staphylococcus aureus [30] = assay: Antimicrobial activity against Staphylococcus aureus 29213 assessed as absence bacterial growth measured after 18 to 24 hrs incubation by NCCLS m; assay type: functional; settings: time 18-24 hrs
[31] = system: Staphylococcus epidermidis; assay: Antimicrobial activity against Staphylococcus epidermidis 12228 assessed as absence bacterial growth measured after 18 to 24 hrs incubation by NCCLS method; assay type: functional; settings: time 18-24 hrs
Escherichia coli [32] = assay: Antimicrobial activity against Escherichia coli 25922 assessed as absence bacterial growth measured after 18 to 24 hrs incubation in presence of ZnCl2 by NCCLS method; assay type: functional; settings: time 18-24 hrs
Escherichia coli [33] = assay: Antimicrobial activity against Escherichia coli 25922 assessed as absence bacterial growth measured after 18 to 24 hrs incubation in presence of 25% serum by NCCLS method; assay type: functional; settings: time 18-24 hrs
[34] = Cytotoxicity against human HEK-293T cells assessed as cell survival rate measured after 8 hrs by MTT assay; assay type: toxicity, cell-based
Pseudomonas aeruginosa [35] = assay: Antimicrobial activity against Pseudomonas aeruginosa 27853 assessed as bacterial killing measured after 16 hrs incubation; assay type: functional
Escherichia coli [36] = assay: Antimicrobial activity against Escherichia coli 25922 assessed as absence bacterial growth measured after 18 to 24 hrs incubation in presence of KCl by NCCLS method; assay type: functional; settings: time 18-24 hrs
Staphylococcus aureus [37] = assay: Antimicrobial activity against Staphylococcus aureus 29213 assessed as bacterial killing measured after 16 hrs incubation; assay type: functional
[38] = Antimicrobial activity against Salmonella pullorum C7913 assessed as absence bacterial growth measured after 18 to 24 hrs incubation by NCCLS method; assay type: functional, Salmonella enterica subsp. enterica serovar Pullorum; settings: Salmonella enterica, time 18-24 hrs
Escherichia coli [39] = assay: Antimicrobial activity against Escherichia coli 25922 assessed as absence bacterial growth measured after 18 to 24 hrs incubation in presence of NaCl by NCCLS method; assay type: functional; settings: time 18-24 hrs
Salmonella typhimurium [40] = assay: Antimicrobial activity against Salmonella typhimurium 14028 assessed as absence bacterial growth measured after 18 to 24 hrs incubation by NCCLS method; assay type: functional, Salmonella enterica subsp. enterica serovar Typhimurium; settings: Salmonella enterica, time 18-24 hrs

H-GKLWLKGVKLWLKGGKLWLKG-NH2
> 64 µM: IC50 at 8 h [34]
16 µM: MIC (Escherichia coli [6])
> 32 µM: MIC (Escherichia coli [4]) | MIC (Listeria monocytogenes [15]) | MBC (Listeria monocytogenes [25]) | MIC (Escherichia coli [33])
8 µM: MBC (Salmonella typhimurium [23])
8.73 µM: IC50 at 8 h [29]
1 µM: MIC (Escherichia coli [10]) | MIC (Acinetobacter baumannii [13]) | MBC (Escherichia coli [19]) | MIC (Escherichia coli [20]) | MIC (Escherichia coli [21]) | MIC (Escherichia coli [32]) | MIC (Escherichia coli [36])
2 µM: MBC (Salmonella typhimurium [8]) | MIC (Staphylococcus aureus [14]) | MBC (Staphylococcus aureus [18]) | MIC (Staphylococcus aureus [30]) | MIC [31] | MIC (Salmonella typhimurium [40])
128 µM: HC10 (Erythrocyte)
0.5 µM: MIC (Escherichia coli [9]) | MBC [16] | MBC (Escherichia coli [27]) | MIC [38]
4 µM: MIC (Pseudomonas aeruginosa [1]) | MIC (Bacillus cereus [2]) | MIC (Salmonella typhimurium [3]) | MBC (Acinetobacter baumannii [5]) | MIC (Escherichia coli [7]) | MBC (Enterococcus faecalis [11]) | MBC [12] | MIC (Enterococcus faecalis [17]) | MIC (Staphylococcus aureus [22]) | MBC (Staphylococcus aureus [26]) | MBC (Bacillus cereus [28]) | MBC (Pseudomonas aeruginosa [35]) | MBC (Staphylococcus aureus [37]) | MIC (Escherichia coli [39])
61.3 µM: IC50 at 8 h [24]

H-GKLWLKGWKLWLKGGKLWLKG-NH2
32 µM: MIC (Escherichia coli [4]) | HC10 (Erythrocyte) | MIC (Escherichia coli [33])
1 µM: MIC (Bacillus cereus [2]) | MIC (Escherichia coli [9]) | MBC [16] | MBC (Escherichia coli [19]) | MIC (Escherichia coli [20]) | MIC (Escherichia coli [21]) | MBC (Escherichia coli [27]) | MIC (Escherichia coli [32]) | MIC (Escherichia coli [36]) | MIC [38]
> 32 µM: MIC (Listeria monocytogenes [15]) | MBC (Listeria monocytogenes [25])
61.9 µM: IC50 at 8 h [34]
3.9 µM: IC50 at 8 h [29]
16 µM: MIC (Escherichia coli [6])
2 µM: MIC (Pseudomonas aeruginosa [1]) | MIC (Salmonella typhimurium [3]) | MBC (Acinetobacter baumannii [5]) | MIC (Escherichia coli [7]) | MIC (Escherichia coli [10]) | MIC (Acinetobacter baumannii [13]) | MIC (Staphylococcus aureus [14]) | MIC (Enterococcus faecalis [17]) | MIC (Staphylococcus aureus [22]) | MIC [31] | MIC (Escherichia coli [39]) | MIC (Salmonella typhimurium [40])
8 µM: MBC (Salmonella typhimurium [23]) | MBC (Staphylococcus aureus [26])
53.5 µM: IC50 at 8 h [24]
4 µM: MBC (Salmonella typhimurium [8]) | MBC (Enterococcus faecalis [11]) | MBC [12] | MBC (Staphylococcus aureus [18]) | MBC (Bacillus cereus [28]) | MIC (Staphylococcus aureus [30]) | MBC (Pseudomonas aeruginosa [35]) | MBC (Staphylococcus aureus [37])
